Patent publication US20110263693A1, “CELASTROL, GEDUNIN, AND DERIVATIVES THEREOF AS HSP90 INHIBITORS” (DANA-FARBER CANCER INSTITUTE, INC., priority 2006, published 2011)

Each compound was assayed on celastrol signature (assay: Connectivity Map query with the celastrol signature). Conditions: not given.
Assay type: cell-based, human
Design: key to celastrol score (connectivity score): connectivity score, based on Kolmogorov-Smirnov statistic
Description: (§1) Indeed, a major challenge in cell-based chemical biology and chemical genomics is the identification of compounds' targets (Gardner et al., 2003). We hypothesized that gene expression signatures could be used to identify compound action based on the similarity of such compound-induced signatures to signatures of existing drugs of known mechanism. We therefore employed a collection of gene expression profiles of drug-treated cell lines that was developed in our lab, termed the Connectivity Map (Lamb et al., 2006). This database comprises 453 genome-wide Affymetrix expression profiles derived from the treatment of human cell lines with 164 small molecules, primarily FDA-approved drugs. A 6 hr treatment time was chosen in an attempt to capture the primary, and potentially mechanistic, effects of the compounds rather than the downstream phenotypic consequences.
(§2) In order to use the Connectivity Map to gain insight into celastrol and gedunin function, we first defined a gene expression signature of celastrol and gedunin activity. The expression signatures of celastrol and gedunin were derived by expression profiling of RNA from LNCaP cells treated with celastrol (1.25 μM), gedunin (20 μM), and vehicle (DMSO) for 6 hr; signatures were defined using comparative marker selection to identify transcripts that distinguished between the compound- and vehicle-treated profiles by the signal-to-noise (SNR) metric. The enrichment of these signatures in the gene expression profiles of the Connectivity Map database was then assessed using a gene enrichment metric, the connectivity score, based on the Kolmogorov-Smirnov statistic (Lamb et al., 2003).
(§3) The celastrol and gedunin signatures were developed from RMA-processed microarray data from LNCaP cells treated with 1.25 μM celastrol or 20 μM gedunin for 6 hours. Comparative marker selection was used to identify markers that distinguished celastrol- and/or gedunin-treated samples from vehicle-treated samples by the median SNR (Golub et al., 1999). The top 50 markers that increased and decreased relative to vehicle-treated controls were used as the signatures.
(§4) The current version of the Connectivity Map data set (build01) contains genome-wide expression data for 453 treatment and vehicle control pairs, representing 164 distinct small molecules. Cell treatments and Affymetrix profiling were predominantly carried out in MCF7 cells with 6 hr treatments as detailed (Table 4) (Lamb et al., 2006). Enrichment of the induced and repressed genes of a signature within each Connectivity Map treatment profile was estimated with a metric based on the Kolmogorov-Smirnov statistic as described (Lamb et al., 2003, Lamb et al., 2006). Connectivity Map data are available at www.broad.mit.edu/cmap/ and GEO (accession number GSE5258).
(§5) For the celastrol and gedunin signatures, RMA-processed data was filtered and thresholded (min fold change=2, min absolute change=50, floor=10, ceiling=16000). Comparative marker selection (GenePattern) was used to identify markers that distinguished celastrol- and/or gedunin-treated samples from vehicle-treated samples by the median SNR. The top fifty markers that increased and decreased relative to vehicle treated controls were used as the celastrol, gedunin, or joint celastrol/gedunin signatures.
(§6) The current version of The Connectivity Map dataset (build01) contains genome-wide expression data for 453 treatment and vehicle control pairs, representing 164 distinct small molecules. Cell treatments were predominantly carried out in the MCF7 cell line for 6 h as detailed in Table 4. Affymetrix profiling was then carried out as described (Lamb et al., 2006).

`O=S(=O)([O-])[O-].[Cu+2]` [copper sulfate] was tested, and the celastrol rank was 68.

In the case of `O=S(=O)([O-])[O-].[Cu+2]` [copper sulfate], the “celastrol score (connectivity score)” value was 0.113.

Same assay, conditions: enrichment of the celastrol signature (1.25 μM celastrol at 6 h, LNCaP) in the compound's Connectivity Map profiles; 6 hr treatment

Point of comparison: `CCCNC(=O)NS(=O)(=O)c1ccc(Cl)cc1` [chlorpropamide], “celastrol score (connectivity score)” value 0. Against it:
- C/C(=C\c1ccc(C(=O)O)cc1)c1ccc2c(c1)C(C)(C)CCC2(C)C [TTNPB] — the same, 0
- N#CC(=C(N)Sc1ccccc1)C(C#N)=C(N)Sc1ccccc1 [U0125] — the same, 0
- C[C@@H](N)[C@H]1CC[C@H](C(=O)Nc2ccncc2)CC1 [Y-27632] — the same, 0
- CC(=O)Oc1ccccc1C(=O)O [acetylsalicylic acid] — higher, 0.154
- C[C@]12CC[C@@H]3c4ccc(O)cc4CC[C@H]3[C@@H]1CC[C@H]2O [alpha-estradiol] — lower, −0.066
- CN(C)CCC=C1c2ccccc2CCc2ccccc21 [amitriptyline] — the same, 0
- CCCCC/C=C\C/C=C\C/C=C\C/C=C\CCCC(=O)O [arachidonic acid] — the same, 0
- Cn1cnc([N+](=O)[O-])c1Sc1ncnc2nc[nH]c12 [azathioprine] — higher, 0.552
- NC(CO)C(=O)NNCc1ccc(O)c(O)c1O (centres unmarked) [benserazide] — the same, 0
- Cc1ccc2c(c1)C(=O)C1(O)CCN(c3ccccc3)C1=N2 (centres unmarked) [blebbistatin] — the same, 0
- CCCC(=O)Nc1ncnc2c1ncn2[C@@H]1O[C@@H]2COP(=O)(O)O[C@H]2[C@H]1OC(=O)CCC [bucladesine] — the same, 0
- O=C(/C=C/c1ccc(O)c(O)c1)c1ccc(O)cc1O [butein] — higher, 0.295
- Clc1ccc(C(c2ccc(Cl)cc2)n2cc[n+](CC(OCc3ccc(Cl)cc3Cl)c3ccc(Cl)cc3Cl)c2)cc1 (centres unmarked) [calmidazolium] — higher, 0.334
- NC(=O)N1c2ccccc2C=Cc2ccccc21 [carbamazepine] — higher, 0.339
- Cc1ccc(-c2cc(C(F)(F)F)nn2-c2ccc(S(N)(=O)=O)cc2)cc1 [celecoxib] — lower, −0.01
- CN(C)CCCN1c2ccccc2Sc2ccc(Cl)cc21 [chlorpromazine] — higher, 0.08
- CCOC(=O)C(C)(C)Oc1ccc(Cl)cc1 [clofibrate] — the same, 0
- Clc1ccccc1C(c1ccccc1)(c1ccccc1)n1ccnc1 [clotrimazole] — higher, 0.557
- [Cl][Co][Cl] [cobalt chloride] — higher, 0.269
- COc1cc2c(c(OC)c1OC)-c1ccc(OC)c(=O)cc1[C@@H](NC(C)=O)CC2 [colchicine] — higher, 0.391
- C=C[C@@]1(C)CC(=O)[C@]2(O)[C@@]3(C)[C@@H](O)CCC(C)(C)[C@@H]3[C@H](O)[C@H](OC(C)=O)[C@@]2(C)O1 [colforsin] — the same, 0
- C=C1[C@@H](C)[C@H]2[C@H](Cc3ccccc3)NC(=O)[C@]23OC(=O)/C=C/[C@H](O)CCC[C@@H](C)C/C=C/[C@H]3[C@@H]1O [cytochalasin B] — the same, 0
- Nc1ncn([C@H]2C[C@H](O)[C@@H](CO)O2)c(=O)n1 [decitabine] — the same, 0
- CC(=O)N(O)CCCCCNC(=O)CCC(=O)N(O)CCCCCNC(=O)CCC(=O)N(O)CCCCCN [deferoxamine] — lower, −0.175
- CN[C@H]1CCc2cc(OC)c(OC)c(OC)c2-c2ccc(OC)c(=O)cc21 [demecolcine] — the same, 0
- C[C@@H]1C[C@H]2[C@@H]3CCC4=CC(=O)C=C[C@]4(C)[C@@]3(F)[C@@H](O)C[C@]2(C)[C@@]1(O)C(=O)CO [dexamethasone, reference compound] — the same, 0
- O=C(O)Cc1ccccc1Nc1c(Cl)cccc1Cl [diclofenac] — lower, −0.197
- COC(=O)CNC(=O)C(=O)OC [dimelhyloxalylglycine] — higher, 0.326
- CC/C=C\C/C=C\C/C=C\C/C=C\C/C=C\C/C=C\CCC(=O)OCC [docosahexaenoic acid ethyl ester] — higher, 0.572
- NCCc1ccc(O)c(O)c1 [dopamine] — lower, −0.596
- C[C@H]1c2cccc(O)c2C(=O)C2=C(O)[C@]3(O)C(=O)C(C(N)=O)=C(O)[C@@H](N(C)C)[C@@H]3[C@@H](O)[C@@H]21 [doxycycline] — the same, 0
- C[C@]12CC[C@@H]3c4ccc(O)cc4CC[C@H]3[C@@H]1CC[C@@H]2O [estradiol] — higher, 0.017
- C=C1C[C@@H]2[C@H](CC[C@]3(C)C(=O)CC[C@@H]23)[C@@]2(C)C=CC(=O)C=C12 [exemestane] — higher, 0.427

Same assay, conditions: rank by celastrol score among 164 Connectivity Map compounds

Point of comparison: `C/C(=C\c1ccc(C(=O)O)cc1)c1ccc2c(c1)C(C)(C)CCC2(C)C` [TTNPB], celastrol rank 97. Against it:
- N#CC(=C(N)Sc1ccccc1)C(C#N)=C(N)Sc1ccccc1 [U0125] — higher, 106
- Cc1ccc2c(c1)C(=O)C1(O)CCN(c3ccccc3)C1=N2 (centres unmarked) [blebbistatin] — lower, 87
- [Cl][Co][Cl] [cobalt chloride] — lower, 48
- C=C1[C@@H](C)[C@H]2[C@H](Cc3ccccc3)NC(=O)[C@]23OC(=O)/C=C/[C@H](O)CCC[C@@H](C)C/C=C/[C@H]3[C@@H]1O [cytochalasin B] — higher, 125
- COC(=O)CNC(=O)C(=O)OC [dimelhyloxalylglycine] — lower, 44
- CC/C=C\C/C=C\C/C=C\C/C=C\C/C=C\C/C=C\CCC(=O)OCC [docosahexaenoic acid ethyl ester] — lower, 14

What follows are compounds tested on gedunin signature (assay: Connectivity Map query with the gedunin signature). Conditions: not given.
Assay type: cell-based, human
Design: key to gedunin score (connectivity score): connectivity score, based on Kolmogorov-Smirnov statistic
Description: as §1, §2, §3, §4, §5, §6

`O=S(=O)([O-])[O-].[Cu+2]` [copper sulfate] gave a gedunin rank of 78.

In the case of `O=S(=O)([O-])[O-].[Cu+2]` [copper sulfate], the “gedunin score (connectivity score)” value was 0.066.

Same assay, conditions: enrichment of the gedunin signature (20 μM gedunin at 6 hours, LNCaP) in the compound's Connectivity Map profiles; 6 hr treatment

Point of comparison: `COC(=O)CNC(=O)C(=O)OC` [dimelhyloxalylglycine], “gedunin score (connectivity score)” value 0. Against it:
- C/C(=C\c1ccc(C(=O)O)cc1)c1ccc2c(c1)C(C)(C)CCC2(C)C [TTNPB] — higher, 0.095
- N#CC(=C(N)Sc1ccccc1)C(C#N)=C(N)Sc1ccccc1 [U0125] — the same, 0
- C[C@@H](N)[C@H]1CC[C@H](C(=O)Nc2ccncc2)CC1 [Y-27632] — lower, −0.353
- CC(=O)Oc1ccccc1C(=O)O [acetylsalicylic acid] — the same, 0
- C[C@]12CC[C@@H]3c4ccc(O)cc4CC[C@H]3[C@@H]1CC[C@H]2O [alpha-estradiol] — higher, 0.045
- CN(C)CCC=C1c2ccccc2CCc2ccccc21 [amitriptyline] — the same, 0
- CCCCC/C=C\C/C=C\C/C=C\C/C=C\CCCC(=O)O [arachidonic acid] — lower, −0.222
- Cn1cnc([N+](=O)[O-])c1Sc1ncnc2nc[nH]c12 [azathioprine] — higher, 0.361
- NC(CO)C(=O)NNCc1ccc(O)c(O)c1O (centres unmarked) [benserazide] — lower, −0.441
- Cc1ccc2c(c1)C(=O)C1(O)CCN(c3ccccc3)C1=N2 (centres unmarked) [blebbistatin] — the same, 0
- CCCC(=O)Nc1ncnc2c1ncn2[C@@H]1O[C@@H]2COP(=O)(O)O[C@H]2[C@H]1OC(=O)CCC [bucladesine] — lower, −0.144
- O=C(/C=C/c1ccc(O)c(O)c1)c1ccc(O)cc1O [butein] — higher, 0.45
- Clc1ccc(C(c2ccc(Cl)cc2)n2cc[n+](CC(OCc3ccc(Cl)cc3Cl)c3ccc(Cl)cc3Cl)c2)cc1 (centres unmarked) [calmidazolium] — higher, 0.619
- NC(=O)N1c2ccccc2C=Cc2ccccc21 [carbamazepine] — higher, 0.407
- Cc1ccc(-c2cc(C(F)(F)F)nn2-c2ccc(S(N)(=O)=O)cc2)cc1 [celecoxib] — higher, 0.114
- CN(C)CCCN1c2ccccc2Sc2ccc(Cl)cc21 [chlorpromazine] — higher, 0.218
- CCCNC(=O)NS(=O)(=O)c1ccc(Cl)cc1 [chlorpropamide] — the same, 0
- CCOC(=O)C(C)(C)Oc1ccc(Cl)cc1 [clofibrate] — the same, 0
- Clc1ccccc1C(c1ccccc1)(c1ccccc1)n1ccnc1 [clotrimazole] — higher, 0.577
- [Cl][Co][Cl] [cobalt chloride] — higher, 0.1
- COc1cc2c(c(OC)c1OC)-c1ccc(OC)c(=O)cc1[C@@H](NC(C)=O)CC2 [colchicine] — higher, 0.192
- C=C[C@@]1(C)CC(=O)[C@]2(O)[C@@]3(C)[C@@H](O)CCC(C)(C)[C@@H]3[C@H](O)[C@H](OC(C)=O)[C@@]2(C)O1 [colforsin] — the same, 0
- C=C1[C@@H](C)[C@H]2[C@H](Cc3ccccc3)NC(=O)[C@]23OC(=O)/C=C/[C@H](O)CCC[C@@H](C)C/C=C/[C@H]3[C@@H]1O [cytochalasin B] — higher, 0.476
- Nc1ncn([C@H]2C[C@H](O)[C@@H](CO)O2)c(=O)n1 [decitabine] — the same, 0
- CC(=O)N(O)CCCCCNC(=O)CCC(=O)N(O)CCCCCNC(=O)CCC(=O)N(O)CCCCCN [deferoxamine] — the same, 0
- CN[C@H]1CCc2cc(OC)c(OC)c(OC)c2-c2ccc(OC)c(=O)cc21 [demecolcine] — the same, 0
- C[C@@H]1C[C@H]2[C@@H]3CCC4=CC(=O)C=C[C@]4(C)[C@@]3(F)[C@@H](O)C[C@]2(C)[C@@]1(O)C(=O)CO [dexamethasone, reference compound] — the same, 0
- O=C(O)Cc1ccccc1Nc1c(Cl)cccc1Cl [diclofenac] — lower, −0.165
- CC/C=C\C/C=C\C/C=C\C/C=C\C/C=C\C/C=C\CCC(=O)OCC [docosahexaenoic acid ethyl ester] — higher, 0.493
- NCCc1ccc(O)c(O)c1 [dopamine] — the same, 0
- C[C@H]1c2cccc(O)c2C(=O)C2=C(O)[C@]3(O)C(=O)C(C(N)=O)=C(O)[C@@H](N(C)C)[C@@H]3[C@@H](O)[C@@H]21 [doxycycline] — the same, 0
- C[C@]12CC[C@@H]3c4ccc(O)cc4CC[C@H]3[C@@H]1CC[C@@H]2O [estradiol] — lower, −0.166
- C=C1C[C@@H]2[C@H](CC[C@]3(C)C(=O)CC[C@@H]23)[C@@]2(C)C=CC(=O)C=C12 [exemestane] — the same, 0

Same assay, conditions: rank by gedunin score among 164 Connectivity Map compounds

Point of comparison: `C=C1[C@@H](C)[C@H]2[C@H](Cc3ccccc3)NC(=O)[C@]23OC(=O)/C=C/[C@H](O)CCC[C@@H](C)C/C=C/[C@H]3[C@@H]1O` [cytochalasin B], gedunin rank 22. Against it:
- C/C(=C\c1ccc(C(=O)O)cc1)c1ccc2c(c1)C(C)(C)CCC2(C)C [TTNPB] — higher, 74
- N#CC(=C(N)Sc1ccccc1)C(C#N)=C(N)Sc1ccccc1 [U0125] — higher, 122
- Cc1ccc2c(c1)C(=O)C1(O)CCN(c3ccccc3)C1=N2 (centres unmarked) [blebbistatin] — higher, 107
- [Cl][Co][Cl] [cobalt chloride] — higher, 72
- COC(=O)CNC(=O)C(=O)OC [dimelhyloxalylglycine] — higher, 119
- CC/C=C\C/C=C\C/C=C\C/C=C\C/C=C\C/C=C\CCC(=O)OCC [docosahexaenoic acid ethyl ester] — lower, 21
